CCn1c2ccccc2c2ccccc21
solubility (mole fraction)
Conditions	in ethanol	in isopropanol	in methanol	in n-butanol	in n-pentanol	in n-propanol
279.15 K	0.0069	0.0065	0.0028	0.0135	–	0.0092
283.15 K	0.008	0.0076	0.0033	0.0151	0.016	0.0105
287.15 K	0.0095	0.009	0.004	0.0172	0.0183	0.0124
291.15 K	0.0112	0.0107	0.0047	0.0208	0.021	0.0142
295.15 K	0.013	0.0127	0.0057	0.0234	0.025	0.0169
299.15 K	0.0149	0.0152	0.0068	0.0271	0.0292	0.0202
303.15 K	0.0182	0.0183	0.0082	0.0316	0.035	0.024
307.15 K	0.0228	0.0223	0.0098	0.0379	0.042	0.028
311.15 K	0.0274	0.028	0.012	0.0446	0.05	0.033
315.15 K	0.0355	0.0342	0.0147	0.0522	0.0609	0.0401
319.15 K	0.0433	0.0436	0.0179	0.0621	0.0743	0.048

— BigSolDB 2.1
